According to article PMC8624998, “Synthesis and Antiproliferative Evaluation of 3-Chloroazetidin-2-ones with Antimitotic Activity: Heterocyclic Bridged Analogues of Combretastatin A-4” (Pharmaceuticals, 2021):
Where two headings read alike, the source gives them in different places.

What was measured:
[1] = system: microtubule network of MCF-7 cells; test: Immunofluorescence (confocal) of microtubule network; assay type: cell-based, human; conditions: MCF-7, 16 h; 10n 0.05, 0.1, 0.5 μM; CA-4 10 nM; paclitaxel 1 μM
Description: Subsequently, the effect of the representative compound 10n on the organisation of microtubule cytoskeleton of MCF-7 cells was also determined by confocal microscopy using an anti-tubulin antibody (Figure 8). […] The MCF-7 cell nuclei (stained blue) were also clearly observed (Figure 8A). […] The treatment of MCF-7 breast cancer cells with CA-4 tubulin-targeting agents has been reported to result in the formation of multiple micronuclei and mitotic catastrophes.
Confocal microscopy was used to study the effects on MCF-7 cytoskeleton following treatment with compound 10n following the protocols previously reported. For each experiment, all images were collected on the same day using identical parameters. MCF-7 cells were seeded (1 × 10^5 cells/mL) on eight chamber glass slides. Cells were either untreated or treated with vehicle (1% ethanol (v/v)), CA-4 (10 nM), Paclitaxel (1 μM) and β-lactam compound 10n at 50 nM, 100 nM and 500 nM concentrations for 16 h. The cells were then gently washed in PBS and then fixed for 30 min with 100% ice-cold MeOH. Cells were washed three times in PBS for 10 min and then permeabilised in 0.5% Triton X-100. The cells were subsequently washed in PBS containing 0.1% Tween (PBST), and then blocked in bovine serum albumin (5%) diluted in PBST. Cells were then incubated with a mouse monoclonal anti-α-tubulin−FITC antibody (clone DM1A) (1:200) for 2 h at 20 °C. Following washes in PBST, cells were incubated with Alexa Fluor 488 dye (1:500) for 1 h at 20 °C. Following further washes in PBST, the cells were mounted in Ultra Cruz Mounting Media, which contained 4,6-diamino-2-phenolindol dihydrochloride (DAPI). The images were photographed using Leica SP8 confocal microscopy with the Leica application suite X software program. Experiments were performed on three independent occasions.
Figure 8 Compound 10n depolymerises the microtubule network of MCF-7 breast cancer cells. Cells were treated with (A) vehicle control ([…]), (B) CA-4 (10 nM), (C) paclitaxel (1 μM) and compound 10n, (D) (50 nM), (E) (100 nM) and (F) (500 nM) for 16 h. […]

[2] = system: colchicine binding site of β-tubulin; test: Colchicine binding-site (EBI) assay; assay type: cell-based, human; conditions: MCF-7, 10 μM for 2 h, then EBI 100 μM
Description: A colchicine-site binding assay was performed to evaluate the interaction of compound 10n at the colchicine binding site of tubulin using N,N-ethylenebis(iodoacetamide) (EBI). EBI crosslinks the Cys-239 and Cys-354 residues of the colchicine binding site of β-tubulin, alkylating the sulfhydryl group of cysteine. […] Microtubule targeting compounds binding at the colchicine site, e.g., colchicine and CA-4, prevent the formation of the β-tubulin-EBI adduct. […] Control samples (ethanol 0.1% (v/v)) indicated the formation of the β-tubulin-EBI adduct at a slightly lower position (Figure 9). […] These tubulin polymerisation inhibitors act on the colchicine site of tubulin and compete with EBI to bind the colchicine binding site and hinder the cross-linking of EBI with β-tubulin.
The assay was performed as we have previously reported. N,N′-Ethylene-bis(iodoacetamide) (EBI) (Santa Cruz Biotechnology) was dissolved in ethanol (100 μM). MCF-7 cells were seeded at a density of 5 × 10^4 cells/well in 6-well plates and incubated overnight. […]
Figure 9 Effects of compound 10n on the inhibition of the bisthioalkylation of Cys239 and Cys354 of β-tubulin by N,N′-ethylene-bis(iodoacetamide) (EBI) in MCF-7 cells. […] Cells were harvested, lysed and analysed using […] and Western blotting for β-tubulin and β-tubulin-EBI adducts. […]

ACHN = test: NCI-60 5 dose screen, Renal Cancer; assay type: cell-based; conditions: Homo sapiens
NCI-H332M = test: NCI-60 5 dose screen, NSC Lung Cancer; assay type: cell-based; conditions: Homo sapiens
K-562 = test: NCI-60 5 dose screen, leukaemia; assay type: cell-based; conditions: Homo sapiens, K562

| SMILES | effect on microtubule network [1] | β-tubulin-EBI adduct formation [2] | GI50 (NCI-H332M) | also measured |
| --- | --- | --- | --- | --- |
| COc1ccc(C2C(Cl)C(=O)N2c2cc(OC)c(OC)c(OC)c2)cc1O (stereo not drawn) [Compound 10n, 3-Chloro-4-(3-hydroxy-4-methoxy-phenyl)-1-(3,4,5-trimethoxyphenyl)azetidin-2-one] | disorganised microtubule network | Tubulin EBI adduct formation was inhibited | – | – |
| COc1ccc(C2N(c3cc(OC)c(OC)c(OC)c3)C(=O)C2(Cl)Cl)cc1O (stereo not drawn) [Compound 11n, 3,3-Dichloro-4-(3-hydroxy-4-methoxyphenyl)-1-(3,4,5-trimethoxyphenyl)azetidin-2-one] | – | – | – | GI50 (ACHN): 51.1 nM |
| COc1ccc(/C=C\c2cc(OC)c(OC)c(OC)c2)cc1O [CA-4, Combretastatin A-4] | extensive depolymerisation of tubulin | Tubulin EBI adduct formation was inhibited | – | – |
| COc1ccc([C@H]2[C@H](Cl)C(=O)N2c2cc(OC)c(OC)c(OC)c2)cc1 (relative stereo) [Compound 10e trans, Trans-3-chloro-1-(3,4,5-trimethoxyphenyl)-4-(4-methoxyphenyl) azetidin-2-one] | – | – | 0.962 µM | GI50 (ACHN; read-out: GI50): 97.1 nM |
| CCSc1ccc(C2C(Br)C(=O)N2c2cc(OC)c(OC)c(OC)c2)cc1 (stereo not drawn) [Compound 16d, 3-Bromo-4-(4-(ethylthio)phenyl)-1-(3,4,5-trimethoxyphenyl)azetidin-2-one] | – | – | 7.37 µM | GI50 (K-562): 54.5 nM |
